Source: patent US10874685B2, “Pancreatic cancer therapy and diagnosis” (Deutsches Krebsforschungszentrum Stiftung des Öffentlichen …, priority 2014, dated 2020)
“Also recorded” adds a separate entry of the source.

Key:
[1] = test system: pancreatic cancer cell lines (PANC-1, CFPAC-1, CAPAN-1, MIAPaCa-2, BXPC-3); assay: Sulforhodamine B (SRB) cytotoxicity assay on pancreatic cancer cell lines; assay type: cell-based, human; conditions: increasing concentration, 72 h
Protocol: (§1) PANC-1, CFPAC-1, CAPAN-1, MIAPaCa-2, BXPC-3 and fibroblast cells were seeded for 24 h and were exposed to increasing concentration of Pimozide and vehicle for 72 h (FIG. 3A). The same procedure was followed for treatment of cancer cell lines with L741 (FIG. 3B). Cell viability was characterized using a SRB assay. Values are the mean+/−SD of six independent experiments.
(§2) Five pancreatic ductal cancer cell lines with various degree of differentiation were obtained from American Type Culture Collection (Rockville, USA) and Normal Human Dermal Fibroblasts (NHDF) obtained from PromoCell. BXPC-3 (moderately differentiated) as well as poorly differentiated human pancreatic cancer cell lines, PANC-1 and MIAPaCa-2, have been established from primary tumor. AsPC-1, CAPAN-1 and CFPAC-1 which represent well differentiated cell lines was isolated from ascites and liver metastasis of pancreas adenocarcinoma. All cell lines contain mutation in P53 whereas K-ras mutation reported in all with the exception of BxPc3. BRCA2 mutation just reported in CAPAN-1 cells.
(§3) Sulforhodamine B sodium salt (sigma) was used to assess cell viability and IC50 determination of pancreatic cancer cells. […] Cell viability was specified by using plate reader (TECAN) with measuring of absorbance at 570 and 650 nm (background) in treated or untreated 96 well plate.

MIAPaCa-2 cells = assay: Orthotopic pancreatic tumor mouse model treated with DRD2 antagonists; assay type: in vivo, mice; conditions: compared to vehicle
Protocol: Two million MIAPaCa-2 cells were resuspended in 10 μL Matrigel (BD Biosciences, San Jose, Calif.) were orthotopically implanted into the tail of the pancreas of 6-week-old Nod scid gamma animals (Jackson Labs, Bar Harbor, Me.) (day 1). When tumors were palpable (day 27), mice were randomized into 2 groups (n=7 in control group and n=9 in haloperidol group) and injected intraperitoneally with either haloperidol (10 mg/kg) or solvent (dimethylsulfoxide [DMSO] control group) for 12 days. The experiment was terminated when control mice appeared moribund. Weight of the animal and final tumor weight and volume were measured.

[2] = test system: SREBP1, SREBP2, INSIG1, HMGCR, LDLR mRNA; assay: qRT-PCR of cholesterol biosynthesis genes in PDAC cell lines; assay type: cell-based, human; conditions: qRT-PCR 18 hours post-treatment; relative to actin
Excerpt: Measurement of 2-deoxy-D-glucose uptake shown on the y-axis relative to control by PDAC cell lines (MIAPaCa2, left; PANC-1, middle; AsPC1, right) treated with DMSO (C), pimozide (P) or haloperidol (H) (FIG. 10A). Abundance of free cholesterol, as measured by staining with filipin, after treatment with haloperidol (H) or pimozide (P) in PDAC cell lines (MIAPaCa2, left; PANC-1, middle; AsPC1, right) (FIG. 10B top). Representative micrographs of filipin-labelled cholesterol. PDAC (MIAPaCa2, top; PANC-1, middle; AsPC1, bottom) cells were seeded for 24 hours and treated with 10 μM haloperidol (H) or pimozide (P) or DMSO for 18 hours (FIG. 10B bottom). Red-fluorescence represents propidium iodide (PI)-stained nuclei and blue-fluorescence represents filipin-stained cholesterol. mRNA levels of genes relative to R-actin shown on the y-axis involved in cholesterol biosynthesis (from left to right: SREBP1, SREBP2, INSIG1, HMGCR, LDLR) measured by qRT-PCR 18 hours post-treatment with DMSO (C), haloperidol (H) or pimozide (P) in three PDAC cell lines (MIAPaCa2, top; PANC-1, middle; AsPC1, bottom) (FIG. 10C).
For mice xenograft tissue samples and cultured cells, the miRNeasy kit (Qiagen, Valencia, Calif.) was used to extract total RNA. […] Quantification values were calculated according to a standard curve method created from a dilution series. […]

PANC-1 cells = assay: Transwell (Boyden chamber) migration assay, PANC-1; assay type: cell-based, human; conditions: PANC-1, Boyden chamber, increasing doses, 4 h
[3] = test system: KPC-023, KPC-01 and KPC-LM pancreatic cancer cell lines; assay: Viability of primary and metastatic pancreatic cancer cell lines isolated from KPC mice; assay type: cell-based; conditions: primary (KPC-023, KPC-01) and metastatic (KPC-LM) lines
[4] = test system: Fibroblast (non-cancer cells); assay: Sulforhodamine B (SRB) cytotoxicity assay on fibroblasts; assay type: cell-based, human; conditions: increasing concentration, 72 h
Protocol: as §1, §2, §3

O=c1[nH]c2ccccc2n1C1CCN(CCCC(c2ccc(F)cc2)c2ccc(F)cc2)CC1 [pimozide]
cell viability of pancreatic cancer cell lines [1]: Potent toxicity effect; also recorded: dose dependent toxicity effect
metastatic dissemination (MIAPaCa-2 cells): reduces tumor volume, metastasis
tumor volume (MIAPaCa-2 cells; haloperidol 10 mg/kg intraperitoneally for 12 days): reduces tumor volume
expression of genes involved in lipogenesis / cholesterol biosynthesis [2]: inducing expression of genes involved in lipogenesis
migrated cells (PANC-1 cells): significantly reduced migrated cells; also recorded: Dose dependent inhibitory effect
viability of KPC mouse pancreatic cancer cell lines [3]: sensitive; also recorded: Dose-dependent effects
cell viability of fibroblasts versus cancer cells [4]: not as much to Fibroblast
